Assay results published in article PMC7177456, “A Peptidomimetic Fluorescent Probe to Detect the Trypsin β2 Subunit of the Human 20S Proteasome” (International Journal of Molecular Sciences, 2020).

Tests used:
[1] = tested on: 20S proteasome, 26S proteasome and immunoproteasome 20S; assay: Cleavage of substrate 1 by 20S, 26S and 20S immunoproteasome; format: biochemical, human; conditions: 20S vs 26S vs 20S immunoproteasome, equimolar concentrations; initial screening
Description: For enzymatic studies, the human 20S proteasome, 26S proteasome, and 20S immunoproteasome were purchased from Boston Biochem (Cambridge, MA, USA). The 20S proteasome concentration for library deconvolution was in the nanomolar range, and this proteasome entity was used for the main study. Deconvolution of the peptide libraries was performed using the iterative solution method. Dimethyl sulfoxide (DMSO) was used as a solvent for preparation of the stock solution (5 mg/mL) for each lyophilized sub-library. This stock solution was diluted ten times using an assay buffer (50 mM Tris/HCl buffer (pH 8.2)) for the 20S and 20Si proteasome, and for 26S, the buffer was supplemented with 40 mM KCl, 2 mM EDTA, 1 mM DTT, 100 µM ATP, and 50 µg/mL bovine serum albumin (BSA). The volume composition of each well of the 96-well plate was: 20 µL library, 160 µL assay buffer, and 20 µL 20S proteasome solution at a concentration of 1.07 × 10^−9 M. Absorbance or fluorescence measurements were performed on a FluoroStar OMEGA multimode microplate reader (BMG, Ortenberg, Germany). Absorbance increases were monitored at 410 nm. The excitation and emission wavelengths were 320 and 450 nm respectively, for the ABZ/ANB. Enzymatic hydrolysis of the peptide was performed in the assay buffer at 37 °C and continued over 60 min.

20S proteasome [2] = assay: Proteolytic cleavage pattern by RP-HPLC; format: biochemical, human; conditions: substrate 3.1 × 10^−6 M, 20S proteasome 1.07 × 10^−9 M, one hour
Description: For each sample of the diluted substrate (concentration; 3.1 × 10^−6 M), an appropriate amount of proteasome (1.07 × 10^−9 M) was added, and the solution was incubated for 5, 30, and 60 min. The proteolytic reaction was monitored by RP-HPLC.

[3] = tested on: 20S proteasome in human urine; assay: Proteasome activity in human urine with substrate 1; format: biochemical; conditions: for proteasome activity (cleavage of substrate 1): 80 µL urine, substrate 1.34 × 10^−5 M, 320/450 nm, Mann–Whitney p < 0.0001
Description: All urine samples were purchased from St. Vincent de Paul Hospital in Gdynia, Poland (contract no. JN/777/R720/08.11.17). All methods and procedures were performed in accordance with this contract agreement. Participants were informed about the study and sample collection, and their written consent was collected. […] Therefore, the samples were considered unnamed. The samples of human urine were taken during mid-urination and kept for 48 h at −80 °C until required. All samples used for assay development were taken from healthy volunteers (n = 5), and oncological samples were obtained from patients diagnosed with bladder cancer (n = 8).
The urine samples were thawed at room temperature, gently vortexed, and briefly centrifuged (<20 s) to collect the sample at the bottom of the tube. A total of 80 μL urine was transferred to a 96-well microplate and mixed with assay buffer and substrate 1. Proteasome activity was assayed as described earlier. Briefly, 80 µL of urine from healthy volunteers, urine from patients diagnosed with bladder cancer, and bladder cancer urine supplemented by the inhibitor PR671A were mixed with 200 µL of the assayed buffer and 20 µL of the substrate at a concentration of 1.34 × 10^−5 M, and the fluorescence was quantified. An excitation wavelength equal to 320 nm and an emission wavelength of 450 nm were used.
The resulting data were analyzed using Graphpad Prism version 6.0 software (GraphPad Software Inc., La Jolla, CA, USA). All fluorescent measurements were performed in triplicate and represented by the mean ± standard deviation (SD). A two-tailed Mann–Whitney test was applied for the statistical analysis (p < 0.0001).

20S proteasome [4] = assay: Titration: 20S proteasome assay detection limit; format: biochemical, human; conditions: substrate 1.34 × 10^−5 M; 20S proteasome 0.05 to 2 nM; 37 °C, 30 min; 320/450 nm; triplicate
Description: A total of 160 µL assay buffer was added to each well of the 96-well plate, containing a constant substrate concentration (1.34 × 10^−5 M) (20 µL), followed by 20 µL of the 20S proteasome, with concentrations ranging from 0.05 to 2 nM. In total, seven different concentrations were used. The excitation and emission wavelengths were 320 and 450 nm, respectively. Enzymatic hydrolysis of the peptide was performed in the previously described buffer at 37 °C and continued over 30 min. A linear fragment of the curve was chosen, and the slope was calculated for each system. All measurements were performed in triplicate.

20S proteasome [5] = assay: Inhibitory studies: cleavage of substrate 1 in the presence of selective proteasome inhibitors; format: biochemical, human; conditions: deduced from cleavage with selective inhibitors
Excerpt: A black, 96-well flat-bottomed microplate (Brand GMBH, Wertheim, Germany) was used for the inhibitory studies. Two inhibitors, carfilzomib (a selective inhibitor of the β5 subunit of the 20S proteasome) and epoxomicin, were purchased from Merck (Darmstadt, Germany) and used at final concentrations of 1.15 × 10^−6 M and 5.0 × 10^−5 M, respectively. The β2 inhibitor, PR671A [20], and the β1 inhibitor, NCOO1 [21], were used at a concentration of 5 × 10^−6 M. These reagents were kindly provided by Alexei Kisselev from Dartmouth University (Dartmouth, NH, USA). The concentration of 20S proteasome was 1.07 × 10^−9 M. The buffered proteasome solution was mixed with 10 µL inhibitor solution. This mixture was incubated for 30 min at 37 °C. After this period, the substrate solution was added at a concentration of 1.34 × 10^−5 M, and the fluorescence was measured over time at 320 nm excitation and 450 nm emission wavelengths. All measurements were performed in triplicate.

ABZ–Dap(O2(Cbz))–Dap(GO1)–Dap(O2(Cbz))–Arg–ANB–NH2 [substrate 1]
selectivity among proteasome entities [1]: selectively proteolyzed by the 20S proteasome | cleavage products (20S proteasome [2]): two products with retention times corresponding to ABZ–Dap(O2(Cbz))–Dap(GO1)–Dap(O2(Cbz))–Arg–OH (2) (tR = 18.24) and ABZ–NH2 (tR = 7.89) | fluorescence (in words) ([3]; bladder cancer urine samples, n = 8): fluorescence increase that was observed in all samples | proteasome activity (cleavage of substrate 1) ([3]; bladder cancer urine, n = 8, mean ± SD): 48.4 ± 28.1 | fluorescence (in words) ([3]; healthy urine samples, n = 5): insignificant background levels of fluorescence | proteasome activity (cleavage of substrate 1) ([3]; healthy urine, n = 5, mean ± SD): 0.1 ± 0.04 | 20S proteasome assay detection limit (20S proteasome [4]): 10^−11 M | sub-site selectivity of hydrolysis (20S proteasome [5]): hydrolyzed exclusively by the β2 sub-site
